ChEMBL document CHEMBL3621115, “Discovery of 6-phenylimidazo[2,1-b]thiazole derivatives as a new type of FLT3 inhibitors” (Bioorg Med Chem Lett, 2015)
Active and inactive are the calls of the source. No cut-off for these calls is given here.

Experiments:
[1] = biological target: BDNF/NT-3 growth factors receptor (Homo sapiens, UniProt Q16620); experiment: Inhibition of human recombinant TrkB
[2] = biological target: Serine/threonine-protein kinase/endoribonuclease IRE1 (Homo sapiens, UniProt O75460); experiment: Inhibition of human recombinant IRE1
[3] = biological target: Mast/stem cell growth factor receptor Kit (Homo sapiens, UniProt P10721); experiment: Inhibition of human recombinant ckit
Myotonin-protein kinase = Myotonin-protein kinase (Homo sapiens, UniProt Q09013); experiment: Inhibition of human recombinant DMPK
[4] = Cytotoxicity against human SKHEP1 cells assessed as cell viability after 72 hrs by MTT assay; type: functional, cell-based; conditions: SK-HEP1, 72 h
[5] = biological target: Macrophage colony-stimulating factor 1 receptor (Homo sapiens, UniProt P07333); experiment: Inhibition of human recombinant Fms
A549 = experiment: Cytotoxicity against human A549 cells assessed as cell viability after 72 hrs by MTT assay; type: functional, cell-based; conditions: A549, 72 h
[6] = biological target: Tyrosine-protein kinase Lyn (Homo sapiens, UniProt P07948); experiment: Inhibition of human recombinant Lyn
[7] = biological target: Receptor tyrosine-protein kinase erbB-4 (Homo sapiens, UniProt Q15303); experiment: Inhibition of human recombinant ErbB4
[8] = biological target: Platelet-derived growth factor receptor beta (Homo sapiens, UniProt P09619); experiment: Inhibition of human recombinant PDGFRbeta
Ephrin type-B receptor 2 = Ephrin type-B receptor 2 (Homo sapiens, UniProt P29323); experiment: Inhibition of human recombinant EphB2
[9] = biological target: Serine/threonine-protein kinase PAK 1 (Homo sapiens, UniProt Q13153); experiment: Inhibition of human recombinant PAK1
[10] = biological target: Tyrosine-protein kinase BTK (Homo sapiens, UniProt Q06187); experiment: Inhibition of human recombinant BTK
[11] = biological target: Receptor tyrosine-protein kinase erbB-2 (Homo sapiens, UniProt P04626); experiment: Inhibition of human recombinant ErbB2
[12] = biological target: Receptor-type tyrosine-protein kinase FLT3 (Homo sapiens) (UniProt P36888); experiment: Inhibition of FLT3 in human MV4-11 cells assessed as down regulation of STAT5 phosphorylation at >0.001 uM after 6 hrs by Western blotting analysis; type: cell-based
[13] = biological target: Dual specificity mitogen-activated protein kinase kinase 1 (Homo sapiens, UniProt Q02750); experiment: Inhibition of human recombinant MEK1
[14] = biological target: Serine/threonine-protein kinase D1 (Homo sapiens, UniProt Q15139); experiment: Inhibition of human recombinant PKCmu
U-251 = experiment: Cytotoxicity against human U251 cells assessed as cell viability after 72 hrs by MTT assay; type: functional, cell-based; conditions: U-251, 72 h
HepG2 = experiment: Cytotoxicity against human HepG2 cells assessed as cell viability after 72 hrs by MTT assay; type: functional, cell-based; conditions: HepG2, 72 h
[15] = biological target: T1, Receptor-type tyrosine-protein kinase FLT3 (Homo sapiens, UniProt P36888); experiment: Inhibition of human recombinant Flt3
T1 sequence (P36888 whole entry): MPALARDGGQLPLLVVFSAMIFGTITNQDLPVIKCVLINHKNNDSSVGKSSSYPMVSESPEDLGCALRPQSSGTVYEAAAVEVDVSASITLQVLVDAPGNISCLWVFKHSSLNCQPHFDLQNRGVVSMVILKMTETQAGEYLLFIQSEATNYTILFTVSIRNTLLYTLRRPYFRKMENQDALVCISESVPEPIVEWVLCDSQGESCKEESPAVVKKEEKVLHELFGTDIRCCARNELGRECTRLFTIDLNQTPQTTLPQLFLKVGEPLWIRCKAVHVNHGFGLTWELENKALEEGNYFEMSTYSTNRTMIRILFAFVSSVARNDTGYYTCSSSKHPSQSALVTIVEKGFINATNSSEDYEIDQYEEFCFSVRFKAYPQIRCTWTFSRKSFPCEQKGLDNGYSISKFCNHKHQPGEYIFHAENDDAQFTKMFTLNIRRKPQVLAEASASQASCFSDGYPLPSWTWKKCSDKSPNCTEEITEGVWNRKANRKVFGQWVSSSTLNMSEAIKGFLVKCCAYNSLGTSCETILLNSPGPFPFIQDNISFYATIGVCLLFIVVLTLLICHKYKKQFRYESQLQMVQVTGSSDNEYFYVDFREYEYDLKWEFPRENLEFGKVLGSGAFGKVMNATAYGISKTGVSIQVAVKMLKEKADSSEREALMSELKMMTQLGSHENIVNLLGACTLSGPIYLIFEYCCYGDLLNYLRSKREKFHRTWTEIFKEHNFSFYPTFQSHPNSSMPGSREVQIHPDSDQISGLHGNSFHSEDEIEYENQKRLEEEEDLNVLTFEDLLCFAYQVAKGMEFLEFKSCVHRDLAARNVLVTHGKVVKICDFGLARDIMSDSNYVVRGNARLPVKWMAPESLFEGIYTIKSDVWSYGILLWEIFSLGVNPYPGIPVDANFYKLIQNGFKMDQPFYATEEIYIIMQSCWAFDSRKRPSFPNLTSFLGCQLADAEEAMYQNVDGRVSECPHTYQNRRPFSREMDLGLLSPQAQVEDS

[16] = biological target: Tyrosine-protein kinase ABL1 (Homo sapiens, UniProt P00519); experiment: Inhibition of human recombinant Abl
[17] = biological target: Tyrosine-protein kinase Fes/Fps (Homo sapiens, UniProt P07332); experiment: Inhibition of human recombinant Fes
[18] = biological target: RAF proto-oncogene serine/threonine-protein kinase (Homo sapiens, UniProt P04049); experiment: Inhibition of human recombinant c-RAF
A2058 = experiment: Cytotoxicity against human A2058 cells assessed as cell viability after 72 hrs by MTT assay; type: functional, cell-based; conditions: A2058, 72 h
NCI-H1975 = experiment: Cytotoxicity against human NCI-H1975 cells assessed as cell viability after 72 hrs by MTT assay; type: functional, cell-based; conditions: NCI-H1975, 72 h
[19] = biological target: Tyrosine-protein kinase Fyn (Homo sapiens, UniProt P06241); experiment: Inhibition of human recombinant Fyn
[20] = biological target: 5'-AMP-activated protein kinase catalytic subunit alpha-1 (Homo sapiens, UniProt Q13131); experiment: Inhibition of human recombinant AMPKalpha1
CWR22R = experiment: Cytotoxicity against human 22Rv1 cells assessed as cell viability after 72 hrs by MTT assay; type: functional, cell-based; conditions: 22Rv1, 72 h
[21] = Cytotoxicity against human DLD1 cells assessed as cell viability after 72 hrs by MTT assay; type: functional, cell-based; conditions: DLD-1, 72 h
[22] = biological target: Serine/threonine-protein kinase pim-1 (Homo sapiens, UniProt P11309); experiment: Inhibition of human recombinant Pim1
MDA-MB-231 = experiment: Cytotoxicity against human MDA-MB-231 cells assessed as cell viability after 72 hrs by MTT assay; type: functional, cell-based; conditions: MDA-MB-231, 72 h
SW480 = experiment: Cytotoxicity against human SW480 cells assessed as cell viability after 72 hrs by MTT assay; type: functional, cell-based; conditions: SW480, 72 h
[23] = biological target: Tyrosine-protein kinase JAK3 (Homo sapiens, UniProt P52333); experiment: Inhibition of human recombinant JAK3
[24] = Cytotoxicity against human PC9 cells assessed as cell viability after 72 hrs by MTT assay; type: functional, cell-based; conditions: PC-9, 72 h

Chain of Tyrosine-protein kinase Lyn (P07948 whole entry): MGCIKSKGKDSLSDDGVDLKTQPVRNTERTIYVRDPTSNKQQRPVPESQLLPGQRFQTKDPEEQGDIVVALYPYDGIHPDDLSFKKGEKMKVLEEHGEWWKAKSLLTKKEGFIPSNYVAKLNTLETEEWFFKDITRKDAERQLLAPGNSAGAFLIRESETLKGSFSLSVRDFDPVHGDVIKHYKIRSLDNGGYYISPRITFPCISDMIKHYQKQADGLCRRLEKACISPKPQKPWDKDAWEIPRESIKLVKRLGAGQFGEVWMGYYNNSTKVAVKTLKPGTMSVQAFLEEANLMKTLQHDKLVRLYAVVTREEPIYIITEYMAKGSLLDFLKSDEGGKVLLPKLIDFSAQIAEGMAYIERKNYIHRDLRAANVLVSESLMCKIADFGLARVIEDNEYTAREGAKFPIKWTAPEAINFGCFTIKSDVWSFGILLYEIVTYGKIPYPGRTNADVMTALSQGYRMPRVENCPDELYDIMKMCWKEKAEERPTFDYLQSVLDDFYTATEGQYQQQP
Chain of Platelet-derived growth factor receptor beta (P09619 whole entry): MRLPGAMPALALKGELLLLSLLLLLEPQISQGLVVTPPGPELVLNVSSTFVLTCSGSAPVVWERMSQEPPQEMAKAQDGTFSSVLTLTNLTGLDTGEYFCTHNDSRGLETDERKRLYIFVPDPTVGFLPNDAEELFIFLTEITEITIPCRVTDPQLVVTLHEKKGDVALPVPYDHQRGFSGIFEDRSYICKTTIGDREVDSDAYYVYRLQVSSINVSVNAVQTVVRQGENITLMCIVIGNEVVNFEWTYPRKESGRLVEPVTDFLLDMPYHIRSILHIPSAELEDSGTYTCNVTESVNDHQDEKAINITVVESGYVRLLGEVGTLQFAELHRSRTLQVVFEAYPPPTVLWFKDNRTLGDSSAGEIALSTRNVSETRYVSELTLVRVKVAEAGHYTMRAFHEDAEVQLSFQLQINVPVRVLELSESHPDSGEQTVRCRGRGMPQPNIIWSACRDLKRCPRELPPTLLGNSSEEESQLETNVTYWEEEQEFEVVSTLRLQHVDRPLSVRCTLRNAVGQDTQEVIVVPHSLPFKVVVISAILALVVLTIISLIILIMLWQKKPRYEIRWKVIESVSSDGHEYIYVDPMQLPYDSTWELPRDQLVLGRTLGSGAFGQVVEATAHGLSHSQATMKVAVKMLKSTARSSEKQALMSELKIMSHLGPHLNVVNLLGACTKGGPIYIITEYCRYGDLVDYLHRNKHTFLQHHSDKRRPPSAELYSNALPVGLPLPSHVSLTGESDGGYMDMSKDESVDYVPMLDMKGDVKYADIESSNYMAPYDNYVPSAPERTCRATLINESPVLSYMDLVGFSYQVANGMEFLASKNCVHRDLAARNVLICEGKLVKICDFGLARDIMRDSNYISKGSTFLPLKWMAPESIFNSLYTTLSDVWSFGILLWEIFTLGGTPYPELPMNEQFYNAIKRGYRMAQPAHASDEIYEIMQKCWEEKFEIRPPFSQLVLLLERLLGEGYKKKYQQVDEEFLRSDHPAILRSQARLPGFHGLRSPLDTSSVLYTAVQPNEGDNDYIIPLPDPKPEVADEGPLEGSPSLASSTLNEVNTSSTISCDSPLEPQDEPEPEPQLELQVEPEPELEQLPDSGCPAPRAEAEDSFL
Chain of Tyrosine-protein kinase BTK (Q06187 whole entry): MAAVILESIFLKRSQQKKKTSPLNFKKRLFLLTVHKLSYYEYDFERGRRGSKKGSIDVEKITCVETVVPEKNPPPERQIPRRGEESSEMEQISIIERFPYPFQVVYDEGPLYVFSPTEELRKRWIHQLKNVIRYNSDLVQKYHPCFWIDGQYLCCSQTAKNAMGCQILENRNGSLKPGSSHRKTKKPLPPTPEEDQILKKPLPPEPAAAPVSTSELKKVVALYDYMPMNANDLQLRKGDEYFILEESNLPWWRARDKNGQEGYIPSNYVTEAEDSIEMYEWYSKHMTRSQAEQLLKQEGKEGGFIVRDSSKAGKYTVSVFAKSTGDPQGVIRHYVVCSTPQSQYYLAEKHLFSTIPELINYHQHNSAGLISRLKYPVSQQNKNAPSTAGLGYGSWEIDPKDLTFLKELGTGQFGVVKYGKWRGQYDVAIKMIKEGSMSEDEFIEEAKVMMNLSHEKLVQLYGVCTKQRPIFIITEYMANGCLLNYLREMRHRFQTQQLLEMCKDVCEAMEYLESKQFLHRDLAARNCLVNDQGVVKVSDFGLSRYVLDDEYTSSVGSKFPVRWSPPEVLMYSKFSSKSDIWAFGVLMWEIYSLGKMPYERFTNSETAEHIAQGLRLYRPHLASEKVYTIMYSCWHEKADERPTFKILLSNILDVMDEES
Chain of Tyrosine-protein kinase Fyn (P06241 whole entry): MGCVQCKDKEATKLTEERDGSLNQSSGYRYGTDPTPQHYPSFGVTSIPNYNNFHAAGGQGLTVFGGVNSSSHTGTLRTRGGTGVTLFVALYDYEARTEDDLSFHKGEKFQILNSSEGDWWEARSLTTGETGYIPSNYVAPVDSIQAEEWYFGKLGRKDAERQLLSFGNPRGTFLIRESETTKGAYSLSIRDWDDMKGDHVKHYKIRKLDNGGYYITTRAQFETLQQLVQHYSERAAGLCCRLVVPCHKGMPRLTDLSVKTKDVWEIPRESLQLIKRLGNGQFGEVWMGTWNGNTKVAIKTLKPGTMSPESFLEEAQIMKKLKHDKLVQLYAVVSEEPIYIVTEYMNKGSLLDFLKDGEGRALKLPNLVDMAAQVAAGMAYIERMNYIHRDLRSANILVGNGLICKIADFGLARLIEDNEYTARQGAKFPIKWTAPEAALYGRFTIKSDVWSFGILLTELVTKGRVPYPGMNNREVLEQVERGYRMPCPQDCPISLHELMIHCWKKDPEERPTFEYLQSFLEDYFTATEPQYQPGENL
Chain of Serine/threonine-protein kinase D1 (Q15139 whole entry): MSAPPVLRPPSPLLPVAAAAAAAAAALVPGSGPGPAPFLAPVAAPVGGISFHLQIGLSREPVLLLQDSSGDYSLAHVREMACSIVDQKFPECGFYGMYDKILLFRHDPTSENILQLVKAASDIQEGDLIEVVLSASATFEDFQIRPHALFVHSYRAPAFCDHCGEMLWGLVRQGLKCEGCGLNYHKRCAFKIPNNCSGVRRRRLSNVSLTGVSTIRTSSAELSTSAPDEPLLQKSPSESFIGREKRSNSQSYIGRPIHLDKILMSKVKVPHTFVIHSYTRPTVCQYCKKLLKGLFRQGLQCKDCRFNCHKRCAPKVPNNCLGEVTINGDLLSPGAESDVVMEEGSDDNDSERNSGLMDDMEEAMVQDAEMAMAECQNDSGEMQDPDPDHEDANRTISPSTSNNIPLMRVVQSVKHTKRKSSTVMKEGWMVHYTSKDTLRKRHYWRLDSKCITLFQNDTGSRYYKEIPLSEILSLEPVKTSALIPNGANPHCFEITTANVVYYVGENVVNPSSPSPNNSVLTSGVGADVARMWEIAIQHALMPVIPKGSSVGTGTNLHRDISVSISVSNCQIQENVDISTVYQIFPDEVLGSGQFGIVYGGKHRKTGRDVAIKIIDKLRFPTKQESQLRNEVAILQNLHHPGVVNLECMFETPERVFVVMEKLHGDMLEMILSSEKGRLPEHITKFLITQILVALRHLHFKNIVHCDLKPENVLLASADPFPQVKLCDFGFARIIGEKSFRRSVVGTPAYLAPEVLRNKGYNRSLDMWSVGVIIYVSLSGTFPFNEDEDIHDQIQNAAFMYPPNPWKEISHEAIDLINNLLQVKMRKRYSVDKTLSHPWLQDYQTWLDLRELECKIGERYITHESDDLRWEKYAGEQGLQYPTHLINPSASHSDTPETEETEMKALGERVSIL
Chain of Serine/threonine-protein kinase/endoribonuclease IRE1 (O75460 whole entry): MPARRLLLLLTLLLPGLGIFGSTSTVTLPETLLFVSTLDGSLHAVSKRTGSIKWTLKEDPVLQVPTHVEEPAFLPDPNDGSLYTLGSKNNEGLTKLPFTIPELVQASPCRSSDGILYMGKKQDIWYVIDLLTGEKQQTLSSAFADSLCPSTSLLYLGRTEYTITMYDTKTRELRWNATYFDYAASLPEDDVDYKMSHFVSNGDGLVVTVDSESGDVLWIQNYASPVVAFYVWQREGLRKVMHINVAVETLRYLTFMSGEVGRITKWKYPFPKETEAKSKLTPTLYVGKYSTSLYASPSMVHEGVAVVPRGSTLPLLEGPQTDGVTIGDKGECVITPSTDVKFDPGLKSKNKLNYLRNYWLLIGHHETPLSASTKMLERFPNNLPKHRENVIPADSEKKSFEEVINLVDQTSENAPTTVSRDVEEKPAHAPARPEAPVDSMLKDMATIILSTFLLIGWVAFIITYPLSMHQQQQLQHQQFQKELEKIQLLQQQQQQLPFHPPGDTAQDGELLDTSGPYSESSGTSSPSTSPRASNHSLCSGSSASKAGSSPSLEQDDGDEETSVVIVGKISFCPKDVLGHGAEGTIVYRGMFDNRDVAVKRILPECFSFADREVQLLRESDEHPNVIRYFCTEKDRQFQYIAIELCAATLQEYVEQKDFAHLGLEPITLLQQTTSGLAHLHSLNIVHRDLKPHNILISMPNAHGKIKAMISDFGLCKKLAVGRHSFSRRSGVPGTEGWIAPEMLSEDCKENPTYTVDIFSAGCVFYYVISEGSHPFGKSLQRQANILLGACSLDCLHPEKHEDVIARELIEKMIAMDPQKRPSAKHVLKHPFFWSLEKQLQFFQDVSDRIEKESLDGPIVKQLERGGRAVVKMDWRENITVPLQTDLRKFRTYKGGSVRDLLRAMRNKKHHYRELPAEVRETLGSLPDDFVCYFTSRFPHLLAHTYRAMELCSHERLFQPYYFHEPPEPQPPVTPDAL
Chain of Serine/threonine-protein kinase pim-1 (P11309 whole entry): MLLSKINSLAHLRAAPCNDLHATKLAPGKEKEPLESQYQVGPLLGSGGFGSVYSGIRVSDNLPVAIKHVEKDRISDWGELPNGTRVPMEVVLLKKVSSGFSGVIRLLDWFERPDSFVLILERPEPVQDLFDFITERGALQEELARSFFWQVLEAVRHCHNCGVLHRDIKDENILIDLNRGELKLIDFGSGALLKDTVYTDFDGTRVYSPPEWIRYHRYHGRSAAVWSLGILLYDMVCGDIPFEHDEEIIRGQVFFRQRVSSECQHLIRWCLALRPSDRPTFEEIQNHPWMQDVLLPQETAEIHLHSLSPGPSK

IC50 [1]: > 10 µM
IC50 [2]: > 10 µM
IC50 [3]: 0.294 µM
IC50 (Myotonin-protein kinase): > 10 µM
IC50 [5]: 0.043 µM
IC50 [6]: > 10 µM
IC50 [7]: > 10 µM
IC50 [8]: 1.98 µM
IC50 (Ephrin type-B receptor 2): > 10 µM
IC50 [9]: > 10 µM
IC50 [10]: > 10 µM
IC50 [11]: > 10 µM
inhibition [12]: Active
IC50 [13]: > 10 µM
IC50 [14]: > 10 µM
IC50 [15]: 0.022 µM
IC50 [16]: > 10 µM
IC50 [17]: > 10 µM
IC50 [18]: > 10 µM
IC50 [19]: > 10 µM
IC50 [20]: > 10 µM
IC50 [22]: 4.04 µM
IC50 [23]: > 10 µM
Structure (SMILES): CN(C)CCCNC(=O)c1csc2nc(-c3ccc(NC(=O)Nc4cc(C(C)(C)C)on4)cc3)cn12
IC50 [4]: 10 µM
IC50 (A549): 10 µM
IC50 (U-251): > 10 µM
IC50 (HepG2): 10 µM
IC50 (A2058): 10 µM
IC50 (NCI-H1975): > 10 µM
IC50 (CWR22R): > 10 µM
IC50 [21]: 10 µM
IC50 (MDA-MB-231): 10 µM
IC50 (SW480): 10 µM
IC50 [24]: > 10 µM
